For twelve molecules, GI50 and TGI results are on record in PubChem BioAssay (NCI).

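All cell lines were grown in 96-well plates and treated with compound for 48 hours. GI50: concentration for 50% inhibition of growth. TGI: total growth inhibition.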

Test systems include SF-539 CNS; HOP-92 NSCLC; A498 renal; HCT-116 colon; SK-OV-3 ovarian; UACC-62 melanoma; MALME-3M melanoma; ACHN renal; MDA-MB-231 breast.
Holding throughout (experiment): NCI-60 cell line screen, 48 h

Turning to `O=S(=O)([O-])c1ccc(N=Cc2ccccc2[O-])cc1.O=S(=O)([O-])c1ccc(N=Cc2ccccc2[O-])cc1.[O]=[U+2]=[O]`, the GI50 was 54.7 µM in the experiment on SF-539 CNS; over 100 µM in the experiment on HOP-92 NSCLC; over 100 µM in the experiment with A498 renal; 20 µM with HCT-116 colon; over 100 µM in the experiment with SK-OV-3 ovarian; over 100 µM in the experiment on UACC-62 melanoma. Also, the GI50 in the experiment with MALME-3M melanoma and in the experiment with ACHN renal was over 100 µM in each case. The TGI with SF-539 CNS, with HOP-92 NSCLC, with A498 renal, with HCT-116 colon, in the experiment on SK-OV-3 ovarian and with UACC-62 melanoma was over 100 µM throughout. The TGI with MALME-3M melanoma and with ACHN renal was over 100 µM each time.

On to `C[n+]1c(/C=C/c2c[nH]c3ccccc23)ccc2ccccc21`, for which the GI50 with SF-539 CNS was 12.7 µM; in the experiment with A498 renal it was 2.8 µM; in the experiment on MDA-MB-231 breast it was 10.5 µM; in the experiment on HCT-116 colon, 4.65 µM; with SK-OV-3 ovarian, 14.7 µM; in the experiment with UACC-62 melanoma it was 7.31 µM. For the same molecule, in the experiment on ACHN renal, the GI50 was 10.1 µM. Besides, the TGI in the experiment on SF-539 CNS was found to be 27.3 µM; in the experiment on A498 renal it was 18.1 µM; in the experiment with MDA-MB-231 breast it was 23 µM; in the experiment on HCT-116 colon, 22.5 µM; in the experiment with SK-OV-3 ovarian, 90.8 µM; in the experiment with UACC-62 melanoma, 21.1 µM. The molecule also displayed a TGI in the experiment on ACHN renal of 47.8 µM.

Consider `CC(C)N1CC2CN(Cc3ccccc3)CC(C1)C2=O`, for which the TGI with SF-539 CNS, in the experiment on HOP-92 NSCLC, in the experiment with MDA-MB-231 breast, with HCT-116 colon, with SK-OV-3 ovarian and with UACC-62 melanoma was over 100 µM each time. For the same molecule, the TGI in the experiment with MALME-3M melanoma and in the experiment on ACHN renal was over 100 µM in each case.

Take `Cc1cc([N+](=O)[O-])ccc1NC(=O)C(=O)C(C(=O)c1ccccc1-c1ccccc1)C1OC(=O)c2ccccc21` (configuration not stated): the TGI was found to be 21.7 µM in the experiment with SF-539 CNS; 34 µM in the experiment on HOP-92 NSCLC; 29.9 µM in the experiment with HCT-116 colon; 65.6 µM in the experiment with SK-OV-3 ovarian; 13.5 µM in the experiment on UACC-62 melanoma; 29.9 µM in the experiment on MALME-3M melanoma. In the experiment on ACHN renal, this molecule showed a TGI of over 100 µM.

For `O=C1/C(=N\O)c2ccccc2S1(=O)=O`, the TGI in the experiment on SF-539 CNS, with HOP-92 NSCLC, in the experiment with A498 renal, with HCT-116 colon, in the experiment on SK-OV-3 ovarian and in the experiment on UACC-62 melanoma was over 100 µM each time. The TGI with MALME-3M melanoma and in the experiment on ACHN renal was over 100 µM each time.

Consider `COc1c(C)cc(O)cc1C=O`, for which the TGI in the experiment with SF-539 CNS, in the experiment with HOP-92 NSCLC, in the experiment on SK-OV-3 ovarian, with UACC-62 melanoma, in the experiment with MALME-3M melanoma and in the experiment on ACHN renal was over 100 µM in each case.

As to `CN(C)c1ccc(/C=C/C(=O)[O-])cc1.CN(C)c1ccc(/C=C/C(=O)[O-])cc1.[Cu+2]`, the TGI in the experiment with SF-539 CNS is over 100 µM; in the experiment on A498 renal, over 86.4 µM; in the experiment on HCT-116 colon, over 100 µM; in the experiment with SK-OV-3 ovarian it was over 95 µM; in the experiment on UACC-62 melanoma it was over 62.9 µM; in the experiment on MALME-3M melanoma it was over 100 µM. The TGI with ACHN renal was over 100 µM.

On to `CCOC(=O)C1SC(=Nc2cccc(Cl)c2C)N=C1C` (configuration not stated), for which the TGI with SF-539 CNS was 74 µM; in the experiment with HOP-92 NSCLC, 30.4 µM; in the experiment with A498 renal it was over 100 µM; in the experiment on HCT-116 colon it was 58.1 µM; in the experiment with MALME-3M melanoma, 42.4 µM; with ACHN renal, 77.5 µM.

On to `NC1=CC(=O)c2cccnc2C1=O`, for which the GI50 in the experiment on SF-539 CNS was 1.62 µM; in the experiment on HOP-92 NSCLC it was 1.71 µM; in the experiment on A498 renal, 10.1 µM; in the experiment with MDA-MB-231 breast, 1.9 µM; with HCT-116 colon it was 1.45 µM; in the experiment with SK-OV-3 ovarian, 4.26 µM. Further, the GI50 with UACC-62 melanoma is 1.47 µM; in the experiment with MALME-3M melanoma, 1.7 µM; in the experiment on ACHN renal, 1.29 µM. Moreover, the TGI with SF-539 CNS is 3 µM; in the experiment with HOP-92 NSCLC, 3.39 µM; in the experiment with A498 renal, 23.3 µM; in the experiment with MDA-MB-231 breast it was 4.78 µM; in the experiment with HCT-116 colon, 3.36 µM; with SK-OV-3 ovarian, 17.8 µM. Moreover, the TGI came to 2.87 µM with UACC-62 melanoma, 3.11 µM with MALME-3M melanoma and 2.75 µM in the experiment on ACHN renal.

In the case of `CC1=Nc2ccccc2NC(c2ccoc2)C1` (configuration not stated), the TGI in the experiment on SF-539 CNS, in the experiment on HOP-92 NSCLC, with A498 renal, in the experiment on HCT-116 colon, in the experiment with SK-OV-3 ovarian and in the experiment with UACC-62 melanoma was over 100 µM each time. In addition, the TGI in the experiment on MALME-3M melanoma and in the experiment on ACHN renal was over 100 µM throughout.

On to `COC(=O)C1=Cc2cc(OC)c(OC)c(OC)c2[C@H](c2cc(OC)c(OC)c(OC)c2)C1C(=O)OC` (some centres not stated), for which the TGI in the experiment with SF-539 CNS is over 100 µM; with HOP-92 NSCLC, 74.5 µM; in the experiment on A498 renal, over 100 µM; in the experiment with HCT-116 colon, over 100 µM; in the experiment on SK-OV-3 ovarian it was over 100 µM; with UACC-62 melanoma, over 100 µM. Also, the TGI in the experiment with MALME-3M melanoma and with ACHN renal was over 100 µM throughout.

Consider `c1ccc([CH2][Sn]([CH2]c2ccccc2)([O]c2cccc3cccnc23)[O]c2cccc3cccnc23)cc1`, for which the GI50 with SF-539 CNS is 0.248 µM; with HOP-92 NSCLC, 1.19 µM; in the experiment with A498 renal, 0.429 µM; with HCT-116 colon, 0.211 µM; with SK-OV-3 ovarian, 0.492 µM; with UACC-62 melanoma, 0.178 µM. The GI50 was 0.266 µM in the experiment on MALME-3M melanoma and 1.03 µM in the experiment on ACHN renal. The TGI with SF-539 CNS was 0.677 µM; with HOP-92 NSCLC it was 2.46 µM; with A498 renal it was 0.692 µM; in the experiment with HCT-116 colon, 1.19 µM; in the experiment on SK-OV-3 ovarian, 1.57 µM; with UACC-62 melanoma, 0.447 µM. The TGI in the experiment with MALME-3M melanoma worked out at 0.689 µM; with ACHN renal, 2.2 µM.
